Reference: patent US7329652B2, “Diaminotriazole compounds useful as protein kinase inhibitors” (Vertex Pharamaceuticals Incorporated, priority 2004, dated 2008)

Experiments:
JAK-2 enzyme = JAK-2 enzyme (Homo sapiens, UniProt O60674); assay: JAK2 inhibition assay (radiometric 33P filter assay); format: biochemical; settings: 15 μM poly(Glu)4Tyr, 12 μM ATP; read-out: JAK2 inhibition data (Ki)
Description: (§1) Compounds were screened for their ability to inhibit JAK using the assay shown below. Reactions were carried out in a kinase buffer containing 100 mM HEPES (pH 7.4), 1 mM DTT, 10 mM MgCl2, 25 mM NaCl, and 0.01% BSA.
(§2) Substrate concentrations in the assay were 5 μM ATP (200 uCi/μmole ATP) and 1 μM poly(Glu)4Tyr. Reactions were carried out at 25° C. and 1 nM JAK3.
(§3) To each well of a 96 well polycarbonate plate was added 1.5 μl of a candidate JAK3 inhibitor along with 50 μl of kinase buffer containing 2 μM poly(Glu)4Tyr and 10 μM ATP. This was then mixed and 50 μl of kinase buffer containing 2 nM JAK3 enzyme was added to start the reaction. After 20 minutes at room temperature (25° C.), the reaction was stopped with 50 μl of 20% trichloroacetic acid (TCA) that also contained 0.4 mM ATP. The entire contents of each well were then transferred to a 96 well glass fiber filter plate using a TomTek Cell Harvester. After washing, 60 μl of scintillation fluid was added and ^33P incorporation detected on a Perkin Elmer TopCount.
The assays were as described above in Example 25 except that JAK-2 enzyme was used, the final poly(Glu)4Tyr concentration was 15 μM, and final ATP concentration was 12 μM.

JAK3 = target: T1, JAK3 (Homo sapiens, UniProt P52333); assay: JAK3 inhibition assay (radiometric 33P filter assay); format: biochemical; settings: 1 μM poly(Glu)4Tyr, 5 μM ATP, 1 nM JAK3, 25° C.; read-out: JAK3 inhibition data (Ki)
T1 sequence (P52333 1-1124): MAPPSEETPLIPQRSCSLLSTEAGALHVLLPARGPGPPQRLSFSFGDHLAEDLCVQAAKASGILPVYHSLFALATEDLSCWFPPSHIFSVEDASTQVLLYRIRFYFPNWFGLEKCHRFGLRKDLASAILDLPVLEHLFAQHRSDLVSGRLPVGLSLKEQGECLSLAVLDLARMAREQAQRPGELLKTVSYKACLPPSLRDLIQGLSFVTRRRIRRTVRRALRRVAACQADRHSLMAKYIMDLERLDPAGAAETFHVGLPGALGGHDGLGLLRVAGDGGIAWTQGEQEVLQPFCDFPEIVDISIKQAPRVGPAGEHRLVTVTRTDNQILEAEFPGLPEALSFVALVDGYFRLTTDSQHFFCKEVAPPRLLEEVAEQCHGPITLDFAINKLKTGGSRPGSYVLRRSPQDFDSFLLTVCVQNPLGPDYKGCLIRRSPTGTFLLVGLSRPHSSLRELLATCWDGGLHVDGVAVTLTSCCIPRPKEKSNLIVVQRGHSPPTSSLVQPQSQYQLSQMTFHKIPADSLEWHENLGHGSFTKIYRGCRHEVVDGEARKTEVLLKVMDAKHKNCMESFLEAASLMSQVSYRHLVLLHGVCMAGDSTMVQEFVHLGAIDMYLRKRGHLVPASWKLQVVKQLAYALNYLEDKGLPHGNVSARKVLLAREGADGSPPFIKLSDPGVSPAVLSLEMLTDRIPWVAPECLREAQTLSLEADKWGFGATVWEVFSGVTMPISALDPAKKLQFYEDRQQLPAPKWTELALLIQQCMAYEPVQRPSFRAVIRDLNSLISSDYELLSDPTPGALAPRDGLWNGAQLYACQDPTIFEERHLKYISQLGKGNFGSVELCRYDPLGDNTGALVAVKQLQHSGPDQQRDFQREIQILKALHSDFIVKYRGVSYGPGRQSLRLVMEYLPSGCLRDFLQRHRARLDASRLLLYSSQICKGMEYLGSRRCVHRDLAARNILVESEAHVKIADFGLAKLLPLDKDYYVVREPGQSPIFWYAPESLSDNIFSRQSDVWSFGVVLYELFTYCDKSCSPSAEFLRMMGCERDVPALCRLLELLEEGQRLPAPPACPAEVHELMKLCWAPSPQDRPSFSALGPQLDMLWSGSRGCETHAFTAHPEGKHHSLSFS
Description: as §1, §2, §3

Chain of JAK-2 enzyme (O60674 whole entry, species assumed): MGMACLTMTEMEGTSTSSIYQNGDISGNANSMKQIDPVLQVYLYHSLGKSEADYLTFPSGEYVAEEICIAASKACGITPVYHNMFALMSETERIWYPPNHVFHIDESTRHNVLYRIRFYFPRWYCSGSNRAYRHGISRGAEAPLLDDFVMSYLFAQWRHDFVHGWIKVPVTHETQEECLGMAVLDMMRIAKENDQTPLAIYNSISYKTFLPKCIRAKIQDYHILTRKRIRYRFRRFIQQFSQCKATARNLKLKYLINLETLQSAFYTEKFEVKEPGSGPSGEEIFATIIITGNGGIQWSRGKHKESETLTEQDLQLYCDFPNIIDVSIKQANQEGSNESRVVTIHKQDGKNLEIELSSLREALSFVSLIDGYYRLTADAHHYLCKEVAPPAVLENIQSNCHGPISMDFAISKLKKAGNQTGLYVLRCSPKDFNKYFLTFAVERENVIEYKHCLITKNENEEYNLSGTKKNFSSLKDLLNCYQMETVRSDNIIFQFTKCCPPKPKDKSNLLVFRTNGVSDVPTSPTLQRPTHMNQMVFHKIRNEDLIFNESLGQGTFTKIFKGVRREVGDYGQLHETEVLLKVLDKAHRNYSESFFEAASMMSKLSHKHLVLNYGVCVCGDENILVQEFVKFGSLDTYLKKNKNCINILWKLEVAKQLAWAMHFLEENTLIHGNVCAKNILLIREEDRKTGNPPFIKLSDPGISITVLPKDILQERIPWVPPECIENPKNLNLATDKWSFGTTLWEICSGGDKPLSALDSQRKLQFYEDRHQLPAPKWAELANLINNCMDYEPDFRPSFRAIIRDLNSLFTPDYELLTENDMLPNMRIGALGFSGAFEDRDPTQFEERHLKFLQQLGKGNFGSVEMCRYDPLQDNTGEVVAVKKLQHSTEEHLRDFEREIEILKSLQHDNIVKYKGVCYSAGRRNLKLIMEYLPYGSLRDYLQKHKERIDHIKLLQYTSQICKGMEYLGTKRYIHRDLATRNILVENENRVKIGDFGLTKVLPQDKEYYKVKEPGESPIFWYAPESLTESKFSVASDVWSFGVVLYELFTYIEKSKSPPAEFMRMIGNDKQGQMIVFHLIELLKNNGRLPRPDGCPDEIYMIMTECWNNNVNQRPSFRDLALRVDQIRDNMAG

| SMILES | Ki (JAK-2 enzyme) | Ki (JAK3) |
| --- | --- | --- |
| CC(=O)N1CCCN(c2cc(-n3nc(Nc4ccc(N5CCOCC5)cc4)nc3N)ncn2)CC1 [Compound 2] | < 50 nM | < 50 nM |
| CC(=O)CC(=O)N1CCCN(c2cc(-n3nc(Nc4ccc(N5CCOCC5)cc4)nc3N)ncn2)CC1 [Compound 6] | < 50 nM | < 50 nM |
| Nc1nc(Nc2ccc(N3CCOCC3)cc2)nn1-c1ccnc(N2CCCOCC2)c1 [Compound 14] | 50 to 500 nM | 50 to 500 nM |
| CC(=O)N1[C@H](C)CN(c2cc(-n3nc(Nc4ccc(N5CCOCC5)cc4)nc3N)ncn2)C[C@@H]1C [Compound 16] | < 50 nM | < 50 nM |
| Nc1nc(Nc2ccc(N3CCOCC3)cc2)nn1-c1cc(N2CCN3C(=O)CC[C@@H]3C2)ncn1 [Compound 23] | < 50 nM | < 50 nM |
| CC(=O)N1CCCN(c2cc(-n3nc(Nc4ccc(NC(=O)C5CCC(C)CC5)cc4)nc3N)ncn2)CC1 (stereo not drawn) [Compound 24] | < 50 nM | < 50 nM |
| CCCC1CCC(C(=O)Nc2ccc(Nc3nc(N)n(-c4cc(N5CCCN(C(C)=O)CC5)ncn4)n3)cc2)CC1 (stereo not drawn) [Compound 25] | 50 to 500 nM | 50 to 500 nM |
| CC(=O)N1CCCN(c2cc(-n3nc(Nc4ccc(NC(=O)C5CCOCC5)cc4)nc3N)ncn2)CC1 [Compound 26] | < 50 nM | < 50 nM |
| CC(=O)N1CCCN(c2cc(-n3nc(Nc4ccc(NC(=O)c5cccnc5)cc4)nc3N)ncn2)CC1 [Compound 27] | < 50 nM | < 50 nM |
| CC(=O)N1CCCN(c2cc(-n3nc(Nc4ccc(NC(=O)c5ccncc5)cc4)nc3N)ncn2)CC1 [Compound 28] | < 50 nM | < 50 nM |
| CC(=O)N1CCCN(c2cc(-n3nc(Nc4ccc(NC(=O)c5ccoc5)cc4)nc3N)ncn2)CC1 [Compound 29] | < 50 nM | < 50 nM |
| CC(=O)N1CCCN(c2cc(-n3nc(Nc4ccc(NC(=O)c5ccco5)cc4)nc3N)ncn2)CC1 [Compound 30] | < 50 nM | < 50 nM |
| COC1CCCC(C(=O)Nc2ccc(Nc3nc(N)n(-c4cc(N5CCCN(C(C)=O)CC5)ncn4)n3)cc2)C1 (stereo not drawn) [Compound 32] | < 50 nM | < 50 nM |
| CC(=O)N1CCCN(c2cc(-n3nc(Nc4ccc(N5CCN(C(=O)OC(C)(C)C)CC5)cc4)nc3N)ncn2)CC1 [Compound 34] | < 50 nM | < 50 nM |
| CC(=O)N1CCCN(c2cc(-n3nc(Nc4ccc(N5CCN(C(=O)C(C)(C)C)CC5)cc4)nc3N)ncn2)CC1 [Compound 36] | < 50 nM | < 50 nM |
| CCCC(=O)N1CCN(c2ccc(Nc3nc(N)n(-c4cc(N5CCCN(C(C)=O)CC5)ncn4)n3)cc2)CC1 [Compound 37] | < 50 nM | < 50 nM |
| CC(=O)N1CCCN(c2cc(-n3nc(Nc4ccc(N5CCN(C(=O)C6CCC6)CC5)cc4)nc3N)ncn2)CC1 [Compound 40] | < 50 nM | < 50 nM |
| CC(=O)N1CCCN(c2cc(-n3nc(Nc4ccc(N5CCNCC5)cc4)nc3N)ncn2)CC1 [Compound 42] | < 50 nM | < 50 nM |
| CC(=O)N1CCCN(c2cc(-n3nc(Nc4ccc(N5CCN(C(=O)OC6CCOC6)CC5)cc4)nc3N)ncn2)CC1 (stereo not drawn) [Compound 43] | < 50 nM | < 50 nM |

Now from value to compound:

| Ki (JAK-2 enzyme) | Ki (JAK3) | SMILES |
| --- | --- | --- |
| 50 to 500 nM | < 50 nM | CC(=O)N1CCCN(c2cc(-n3nc(Nc4ccc(N5CCOCC5)cc4)nc3N)ccn2)CC1 [Compound 1] |
| < 50 nM | < 50 nM | Nc1nc(Nc2ccc(N3CCOCC3)cc2)nn1-c1cc(N2CCNC(=O)CC2)ncn1 [Compound 3] |
| < 50 nM | < 50 nM | COCC(=O)N1CCCN(c2cc(-n3nc(Nc4ccc(N5CCOCC5)cc4)nc3N)ncn2)CC1 [Compound 5] |
| < 50 nM | < 50 nM | CS(=O)(=O)N1CCCN(c2cc(-n3nc(Nc4ccc(N5CCOCC5)cc4)nc3N)ncn2)CC1 [Compound 7] |
| < 50 nM | < 50 nM | COC(=O)N1CCCN(c2cc(-n3nc(Nc4ccc(N5CCOCC5)cc4)nc3N)ncn2)CC1 [Compound 8] |
| < 50 nM | < 50 nM | Nc1nc(Nc2ccc(N3CCOCC3)cc2)nn1-c1cc(N2CCCN(C(=O)CC(F)(F)F)CC2)ncn1 [Compound 9] |
| < 50 nM | < 50 nM | CC(=O)N1CCCN(c2cc(-n3nc(Nc4ccc(N(C)C)cc4)nc3N)ncn2)CC1 [Compound 10] |
| < 50 nM | < 50 nM | CC(=O)Nc1ccc(Nc2nc(N)n(-c3cc(N4CCCN(C(C)=O)CC4)ncn3)n2)cc1 [Compound 11] |
| < 50 nM | < 50 nM | CCN(CC)c1ccc(Nc2nc(N)n(-c3cc(N4CCCN(C(C)=O)CC4)ncn3)n2)cc1 [Compound 12] |
| < 50 nM | < 50 nM | CC(=O)N1CCCN(c2cc(-n3nc(Nc4ccc(N5CCCCC5)cc4)nc3N)ncn2)CC1 [Compound 13] |
| < 50 nM | < 50 nM | Nc1nc(Nc2ccc(N3CCOCC3)cc2)nn1-c1cc(N2CCCCCC2)ncn1 [Compound 15] |
| < 50 nM | < 50 nM | CC(=O)N1[C@H](C)CN(c2cc(-n3nc(Nc4ccc(N5CCOCC5)cc4)nc3N)ccn2)C[C@@H]1C [Compound 17] |
| < 50 nM | < 50 nM | Nc1nc(Nc2ccc(N3CCOCC3)cc2)nn1-c1ccnc(N2CC3CCC(CC3)C2)c1 [Compound 18] |
| < 50 nM | < 50 nM | Nc1nc(Nc2ccc(N3CCOCC3)cc2)nn1-c1ccnc(N2CCCCCC2)c1 [Compound 19] |
| < 50 nM | < 50 nM | CC(=O)N1CCCN(c2cc(-n3nc(Nc4ccc(N)cc4)nc3N)ncn2)CC1 [Compound 20] |
| < 50 nM | < 50 nM | CC(=O)N1CCCN(c2cc(-n3nc(Nc4ccc(NC(=O)OC(C)(C)C)cc4)nc3N)ncn2)CC1 [Compound 21] |
| < 50 nM | < 50 nM | Nc1nc(Nc2ccc(N3CCOCC3)cc2)nn1-c1cc(N2CCN3C(=O)CC[C@H]3C2)ncn1 [Compound 22] |
| < 50 nM | < 50 nM | COC1CCC(C(=O)Nc2ccc(Nc3nc(N)n(-c4cc(N5CCCN(C(C)=O)CC5)ncn4)n3)cc2)CC1 (stereo not drawn) [Compound 31] |
| < 50 nM | < 50 nM | CC(=O)N1CCCN(c2cc(-n3nc(Nc4ccc(N5C[C@@H](C)O[C@@H](C)C5)cc4)nc3N)ncn2)CC1 [Compound 33] |
| < 50 nM | < 50 nM | CC(=O)Nc1ccc(Nc2nc(N)n(-c3ccnc(N4C[C@@H](C)N(C(C)=O)[C@@H](C)C4)c3)n2)cc1 [Compound 35, N-(4-{1-[2-(4-Acetyl-3,5-dimethyl-piperazin-1-yl)-pyridin-4-yl]-5-amino-1H-[1,2,4]triazol-3-ylamino}-phenyl)-acetamide] |
| < 50 nM | < 50 nM | CC(=O)N1CCCN(c2cc(-n3nc(Nc4ccc(N5CCN(C(=O)CC(C)C)CC5)cc4)nc3N)ncn2)CC1 [Compound 38] |
| < 50 nM | < 50 nM | CC(=O)N1CCCN(c2cc(-n3nc(Nc4ccc(N5CCN(C(=O)C6CC6)CC5)cc4)nc3N)ncn2)CC1 [Compound 39] |
| < 50 nM | < 50 nM | CC(=O)N1CCCN(c2cc(-n3nc(Nc4ccc(N5CCN(C(=O)C6CCOCC6)CC5)cc4)nc3N)ncn2)CC1 [Compound 41] |
| < 50 nM | < 50 nM | CC(=O)N1CCCN(c2cc(-n3nc(Nc4ccc(N5CCN(C(=O)C(C)C)CC5)cc4)nc3N)ncn2)CC1 [Compound 44] |
| < 50 nM |  | CC(=O)N1[C@H](C)CN(c2cc(-n3nc(Nc4ccc(NC(=O)O[C@@H]5C[C@@H](C)CC[C@@H]5C(C)C)cc4)nc3N)ncn2)C[C@@H]1C [Compound 83] |
